How the values were obtained:
[1] = test system: Plasmodium falciparum; test: Antiplasmodial activity against chloroquine-sensitive Plasmodium falciparum D10; format: functional, organism-based
[2] = test system: Plasmodium falciparum; test: Antiplasmodial activity against chloroquine-sensitive Plasmodium falciparum 3D7; format: functional, organism-based
[3] = test system: Plasmodium falciparum; test: Antiplasmodial activity against chloroquine-resistant Plasmodium falciparum K1; format: functional, organism-based
[4] = test system: Plasmodium falciparum; test: Antiplasmodial activity against chloroquine-resistant Plasmodium falciparum W2; format: functional, organism-based
[5] = test system: KB; test: Cytotoxicity against human KB cells assessed as growth inhibition at 10 uM; format: functional; details: read-out: GI
[6] = test system: KB; test: Cytotoxicity against human KB cells assessed as growth inhibition at 100 uM; format: functional; details: read-out: GI
[7] = test system: KB; test: Cytotoxicity against human KB cells assessed as growth inhibition; format: functional, cell-based
[8] = test system: KB; test: Cytotoxicity against human KB cells assessed as growth inhibition at 0.5 uM; format: functional; details: read-out: GI

Row | SMILES | IC50 [1] [µM] | IC50 [2] [µM] | IC50 [3] [µM] | IC50 [4] [µM] | inhibition of growth at 10 µM [5] [%] | inhibition of growth at 100 µM [6] [%] | IC50 [7] [µM] | inhibition of growth at 0.5 µM [8] [%]
1 | N[C@@H]1C(=O)N(c2ccccc2)[C@@H]1/C=C/c1ccccc1 | 29.3 | – | – | – | – | – | – | –
2 | Cc1ccc(N2C(=O)[C@@H](N)[C@H]2/C=C/c2ccccc2)cc1 | 59.9 | – | – | – | – | – | – | –
3 | [N-]=[N+]=N[C@@H]1C(=O)N(C2CCCCC2)[C@@H]1/C=C/c1ccccc1 | 2.36 | – | – | – | – | – | – | –
4 | [N-]=[N+]=N[C@@H]1C(=O)N(Cc2ccccc2)[C@@H]1/C=C/c1ccccc1 | 4.7 | – | – | – | – | – | – | –
5 | N[C@@H]1C(=O)N(C2CCCCC2)[C@@H]1/C=C/c1ccccc1 | 18.6 | – | – | – | – | – | – | –
6 | O=C1[C@@H](n2cc(-c3ccccc3)nn2)[C@@H](/C=C/c2ccccc2)N1c1ccccc1 | – | > 51 | > 51 | 11.7 | 10 | 58.3 | 91.2 | –
7 | O=C1[C@@H](n2cc(-c3ccccc3)nn2)[C@@H](/C=C/c2ccccc2)N1c1ccc(Cl)cc1 | – | 7.86 | 7.09 | 1 | 16.8 | 79.3 | 84.2 | –
8 | Cc1ccc(N2C(=O)[C@@H](n3cc(-c4ccccc4)nn3)[C@H]2/C=C/c2ccccc2)cc1 | – | 12 | 3.42 | 1 | 14.7 | 80.8 | 89.2 | –
9 | N[C@@H]1C(=O)N(c2ccc(Cl)cc2)[C@@H]1/C=C/c1ccccc1 | 38.1 | – | – | – | – | – | – | –
10 | [N-]=[N+]=N[C@@H]1C(=O)N(c2ccc(Cl)cc2)[C@@H]1/C=C/c1ccccc1 | 4.47 | – | – | – | – | – | – | –
11 | O=C1[C@@H](n2cc(-c3ccccc3)nn2)[C@@H](/C=C/c2ccccc2)N1C1CCCCC1 | – | 1.13 | 1.21 | 1 | 76.8 | 99.7 | 8.36 | –
12 | CCN(CC)CCCC(C)Nc1ccnc2cc(Cl)ccc12 (stereo unspecified) [CHLOROQUINE] | – | – | – | – | 31.4 | 97 | 36 | –
13 | COC(=O)c1nnn([C@@H]2C(=O)N(C3CCCCC3)[C@@H]2/C=C/c2ccccc2)c1C(=O)OC | – | > 45.7 | > 45.7 | > 20 | -7.7 | 8.07 | > 228 | –
14 | COc1cc([C@@H]2c3cc4c(cc3[C@H](O)[C@H]3COC(=O)[C@H]23)OCO4)cc(OC)c1OC [PODOFILOX] | – | – | – | – | – | – | 0.0005 | 81.5
15 | COC(=O)c1nnn([C@@H]2C(=O)N(c3ccc(C)cc3)[C@@H]2/C=C/c2ccccc2)c1C(=O)OC | – | – | – | > 20 | – | – | – | –
16 | Cc1ccc(N2C(=O)[C@@H](N=[N+]=[N-])[C@H]2/C=C/c2ccccc2)cc1 | 5.83 | – | – | – | – | – | – | –
17 | COC(=O)c1nnn([C@@H]2C(=O)N(c3ccc(Cl)cc3)[C@@H]2/C=C/c2ccccc2)c1C(=O)OC | – | 25.1 | 12.3 | > 20 | 19.5 | 56.5 | 145 | –
18 | [N-]=[N+]=N[C@@H]1C(=O)N(c2ccccc2)[C@@H]1/C=C/c1ccccc1 | 10.3 | – | – | – | – | – | – | –

— ChEMBL document CHEMBL1806406, “Antiplasmodial and cytotoxicity evaluation of 3-functionalized 2-azetidinone derivatives” (Bioorg Med Chem Lett, 2011)
